Results from the supplement of paper PMC11208160.

test: recombinant barcode read abundance after kanamycin selection (control-corrected) (log10(CPM+1)); higher = more efficient recombination; sequences stand for … in AGTGCAGAGAAAATCGGCCAGTTTTCTCTGCCTGCAGTCCGCATGCCGT…ATTTATGCAGCGGACTGCCTTTCTCCCAAAGTGATAAACCGGACAGTATCATGGACCGGTTTTCCCGGTAATCCGTATTTGCAAGGTTGGTTTCACT; site = the 11-nt target
Method in brief: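 Values are log10(CPM+1) from a pooled E. coli screen of targets paired with IS621 bridge RNA target-binding loops. Recombination efficiency here means counts per million of recombinant-junction barcodes, averaged and control-corrected. Plates were chloramphenicol/ampicillin LB agar for the control and chloramphenicol/ampicillin/kanamycin with 0.1 mM IPTG, two replicates each.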

| Sequence | recombinant barcode read abundance (log10) |
| --- | --- |
| TGTATTCGCTGGGTTCTAACCTGTTGCCTAG [TGTATTCCTAG_LTGcore_GC_RTGcore_CT] (site TGTATTCCTAG) (LTG core: GC, RTG core: CT) | 0.0931 |
| TGTATTCGGTGGGTTCTAACCTGTTGCCTAG [TGTATTCCTAG_LTGcore_GG_RTGcore_CT] (site TGTATTCCTAG) (LTG core: GG, RTG core: CT) | 0.0184 |
| TGTATTCTATGGGTTCTAACCTGTTGCCTAG [TGTATTCCTAG_LTGcore_TA_RTGcore_CT] (site TGTATTCCTAG) (LTG core: TA, RTG core: CT) | 0.0251 |
| TGTATTCTCTGGGTTCTAACCTGTTGCCTGA [TGTATTCCTAG_LTGcore_TC_RTGcore_TC] (site TGTATTCCTAG) (LTG core: TC, RTG core: TC) | 0.141 |
| TGTATTCTGTGGGTTCTAACCTGTTGCCTAG [TGTATTCCTAG_LTGcore_TG_RTGcore_CT] (site TGTATTCCTAG) (LTG core: TG, RTG core: CT) | 0.0339 |
| TGTATTCTTTGGGTTCTAACCTGTTGCCTAA [TGTATTCCTAG_LTGcore_TT_RTGcore_TT] (site TGTATTCCTAG) (LTG core: TT, RTG core: TT) | 0.0888 |
| TTATAAAAATGGGTTCTAACCTGTTGCCTAG [TTATAAACTAG_LTGcore_AA_RTGcore_CT] (site TTATAAACTAG) (LTG core: AA, RTG core: CT) | 0.0784 |
| TTATAAACATGGGTTCTAACCTGTTGCCTTG [TTATAAACTAG_LTGcore_CA_RTGcore_CA] (site TTATAAACTAG) (LTG core: CA, RTG core: CA) | 0.0537 |
| TTATAAACCTGGGTTCTAACCTGTTGCCTAG [TTATAAACTAG_LTGcore_CC_RTGcore_CT] (site TTATAAACTAG) (LTG core: CC, RTG core: CT) | 0.437 |
| TTATAAACTTGGGTTCTAACCTGTTGCCTCC [TTATAAACTAG_LTGcore_CT_RTGcore_GG] (site TTATAAACTAG) (LTG core: CT, RTG core: GG) | 0.179 |
| TTATAAACTTGGGTTCTAACCTGTTGCCTGA [TTATAAACTAG_LTGcore_CT_RTGcore_TC] (site TTATAAACTAG) (LTG core: CT, RTG core: TC) | 0.137 |
| TTATAAACTTGGGTTCTAACCTGTTGCCTTC [TTATAAACTAG_LTGcore_CT_RTGcore_GA] (site TTATAAACTAG) (LTG core: CT, RTG core: GA) | 0.0607 |
| TTATAAAGCTGGGTTCTAACCTGTTGCCTAG [TTATAAACTAG_LTGcore_GC_RTGcore_CT] (site TTATAAACTAG) (LTG core: GC, RTG core: CT) | 0.0375 |
| TTATAAAGGTGGGTTCTAACCTGTTGCCTAG [TTATAAACTAG_LTGcore_GG_RTGcore_CT] (site TTATAAACTAG) (LTG core: GG, RTG core: CT) | 0.0816 |
| TTATAAATATGGGTTCTAACCTGTTGCCTAG [TTATAAACTAG_LTGcore_TA_RTGcore_CT] (site TTATAAACTAG) (LTG core: TA, RTG core: CT) | 0.124 |
